Measurements: patent US11325940B2, “Certain chemical entities, compositions, and methods” (NeuPharma, Inc., priority 2012, dated 2022)
Like-named read-outs stand apart in the source and are kept apart here.

System: A549 cells
Test: Inhibition of cancer cell growth, MTT assay
Type: cell-based
Settings: Homo sapiens
Protocol: Inhibition of cell growth by compounds was measured using MTT assay (Mosmann, T., Journal of Immunological Methods, 1983, 65, 55-63). Tumor cell lines were purchased from ATCC (American Type Culture Collection, Manassas, Va.). All cell lines were maintained in RPMI 1640 (Hyclone) supplemented with 10% fetal bovine serum (FBS, Hyclone), glutamine (2 mM, Hyclone), and antibiotics (penicillin 100 U/mL and streptomycin 50 μg/mL) at 37° C. in a humidified atmosphere of 5% CO2 in air. Taxol (as a positive control, Sigma) and compounds were dissolved in DMSO (Sigma), and the final concentration of DMSO in the medium was 1%. Tumor cells were plated in 96-well plates at densities of about 4000 cells/well of a 96-well plate and allowed to adhere/grow for 24 h. They were then treated with various concentrations of drug for 72 h. 3-(4,5-Dimethylthiazol-2-yl)-2,5-diphenyltetrazolium bromide (MTT, Sigma) was used to determine the number of viable cells at the time of compound addition and the number of cells remaining after 72 h compound exposure. The number of cells remaining after 72 h was compared to the number of viable cells at the time of compound addition by measuring the absorbance at 570 nm, allowing for the calculation of growth inhibition.
All concentrations of compounds were tested in triplicate and controls were averaged over 4 wells. IC50 was calculated by plotting the concentration of compound vs the percentage of inhibition in treated wells using GraphPad Prism 5. […] The scale utilized in Table 3 is as follows: ++++ less than 20 nM; +++ between 20 nM and 100 nM; ++ between 100 nM and 1000 nM; and + greater than 1000 nM.

[1] = A549 cells, 72 h compound exposure, MTT, read-out: IC50

SMILES: CC(C)[C@@H](N)C(=O)N[C@H]1CC[C@]2(C)[C@H]3CC[C@]4(C)[C@@H](c5ccc(=O)oc5)CC[C@]4(O)[C@@H]3CC[C@]2(O)C1 [Compound C29, (2R)-2-amino-N-((5S,8R,9S,10R,13R,14S,17R)-5,14-dihydroxy-10,13-dimethyl-17-(2-oxo-2H-pyran-5-yl)hexadecahydro-1H-cyclopenta[a]phenanthren-3-yl)-3-methylbutanamide]
- IC50 (A549, 72 h): < 20 nM

SMILES: COC(=O)N[C@H]1CC[C@@]2(C)[C@H](CC[C@@H]3[C@@H]2CC[C@]2(C)[C@@H](c4ccc(=O)oc4)CC[C@]32O)C1 [Compound C17, methyl ((3S,5R,8R,9S,10S,13R,14S,17R)-14-hydroxy-10,13-dimethyl-17-(2-oxo-2H-pyran-5-yl)hexadecahydro-1H-cyclopenta[a]phenanthren-3-yl)carbamate]
- IC50 (A549, 72 h): < 20 nM

SMILES: C[C@]12CC[C@@H](NC(=O)NCCN)C[C@H]1CC[C@@H]1[C@@H]2CC[C@]2(C)[C@@H](c3ccc(=O)oc3)CC[C@]12O [Compound C08, 1-(2-aminoethyl)-3-((3R,5R,8R,9S,10S,13R,14S,17R)-14-hydroxy-10,13-dimethyl-17-(2-oxo-2H-pyran-5-yl)hexadecahydro-1H-cyclopenta[a]phenanthren-3-yl)urea]
- IC50 [1]: 100 to 1000 nM

SMILES: C[C@]12CC[C@H](N)C[C@H]1CC[C@@H]1[C@@H]2CC[C@]2(C)[C@@H](c3ccc(=O)oc3)CC[C@]12O [Compound C35, 5-((3S,5R,8R,9S,10S,13R,14S,17R)-3-amino-14-hydroxy-10,13-dimethylhexadecahydro-1H-cyclopenta[a]phenanthren-17-yl)-2H-pyran-2-one]
- IC50 (A549, 72 h): < 20 nM

SMILES: C[C@]12CC[C@H](NC(=O)NCCO)C[C@H]1CC[C@@H]1[C@@H]2CC[C@]2(C)[C@@H](c3ccc(=O)oc3)CC[C@]12O [Compound C09, 1-((3S,5R,8R,9S,10S,13R,14S,17R)-14-hydroxy-10,13-dimethyl-17-(2-oxo-2H-pyran-5-yl)hexadecahydro-1H-cyclopenta[a]phenanthren-3-yl)-3-(2-hydroxyethyl)urea]
- IC50 (A549, 72 h): 20 to 100 nM

SMILES: C[C@]12CC[C@@H](NC(=O)N3CCNCC3)C[C@H]1CC[C@@H]1[C@@H]2CC[C@]2(C)[C@@H](c3ccc(=O)oc3)CC[C@]12O [Compound C03, N-((3R,5R,8R,9S,10S,13R,14S,17R)-14-hydroxy-10,13-dimethyl-17-(2-oxo-2H-pyran-5-yl)hexadecahydro-1H-cyclopenta[a]phenanthren-3-yl)piperazine-1-carboxamide]
- IC50 [1]: < 20 nM

SMILES: CC(C)[C@@H](N)C(=O)N[C@H]1CC[C@@]2(C)[C@H](CC[C@@H]3[C@@H]2CC[C@]2(C)[C@@H](c4ccc(=O)oc4)CC[C@]32O)C1 [Compound C25, (R)-2-amino-N-((3S,5R,8R,9S,10S,13R,14S,17R)-14-hydroxy-10,13-dimethyl-17-(2-oxo-2H-pyran-5-yl)hexadecahydro-1H-cyclopenta[a]phenanthren-3-yl)-3-methylbutanamide]
- IC50 (A549, 72 h): < 20 nM

SMILES: C[C@]12CC[C@H](NC(=O)[C@@H]3CCCN3)C[C@H]1CC[C@@H]1[C@@H]2CC[C@]2(C)[C@@H](c3ccc(=O)oc3)CC[C@]12O [Compound C14, (S)-N-((3S,5R,8R,9S,10S,13R,14S,17R)-14-hydroxy-10,13-dimethyl-17-(2-oxo-2H-pyran-5-yl)hexadecahydro-1H-cyclopenta[a]phenanthren-3-yl)pyrrolidine-2-carboxamide]
- IC50 (A549, 72 h): < 20 nM

SMILES: CN(C(=O)N1CCOCC1)C1CC[C@@]2(C)[C@H](CC[C@@H]3[C@@H]2CC[C@]2(C)[C@@H](c4ccc(=O)oc4)CC[C@]32O)C1 (stereo partly drawn) [Compound C23, N-((5R,8R,9S,10S,13R,14S,17R)-14-hydroxy-10,13-dimethyl-17-(2-oxo-2H-pyran-5-yl)hexadecahydro-1H-cyclopenta[a]phenanthren-3-yl)-N-methylmorpholine-4-carboxamide]
- IC50 (A549, 72 h): 100 to 1000 nM

SMILES: C[C@]12CC[C@@H](NC(=O)N3CCOCC3)C[C@H]1CC[C@@H]1[C@@H]2CC[C@]2(C)[C@@H](c3ccc(=O)oc3)CC[C@]12O [Compound C01, N-((3R,5R,8R,9S,10S,13R,14S,17R)-14-hydroxy-10,13-dimethyl-17-(2-oxo-2H-pyran-5-yl)hexadecahydro-1H-cyclopenta[a]phenanthren-3-yl)morpholine-4-carboxamide]
- IC50 [1]: 100 to 1000 nM

SMILES: C[C@]12CC[C@H](NC(=O)N3CCCC3)C[C@H]1CC[C@@H]1[C@@H]2CC[C@]2(C)[C@@H](c3ccc(=O)oc3)CC[C@]12O [Compound C06, N-((3S,5R,8R,9S,10S,13R,14S,17R)-14-hydroxy-10,13-dimethyl-17-(2-oxo-2H-pyran-5-yl)hexadecahydro-1H-cyclopenta[a]phenanthren-3-yl)pyrrolidine-1-carboxamide]
- IC50 (A549, 72 h): < 20 nM

SMILES: C[C@]12CC[C@@H](NC(=O)[C@@H]3CCCN3)C[C@H]1CC[C@@H]1[C@@H]2CC[C@]2(C)[C@@H](c3ccc(=O)oc3)CC[C@]12O [Compound C13, (S)-N-((3R,5R,8R,9S,10S,13R,14S,17R)-14-hydroxy-10,13-dimethyl-17-(2-oxo-2H-pyran-5-yl)hexadecahydro-1H-cyclopenta[a]phenanthren-3-yl)pyrrolidine-2-carboxamide]
- IC50 (A549, 72 h): 100 to 1000 nM

SMILES: C[C@]12CC[C@@H](N)C[C@H]1CC[C@@H]1[C@@H]2CC[C@]2(C)[C@@H](c3ccc(=O)oc3)CC[C@]12O [Compound C34, 5-((3R,5R,8R,9S,10S,13R,14S,17R)-3-amino-14-hydroxy-10,13-dimethylhexadecahydro-1H-cyclopenta[a]phenanthren-17-yl)-2H-pyran-2-one]
- IC50 (A549, 72 h): > 1000 nM

SMILES: C[C@]12CCC(N3CCNCC3)C[C@H]1CC[C@@H]1[C@@H]2CC[C@]2(C)[C@@H](c3ccc(=O)oc3)CC[C@]12O (stereo partly drawn) [Compound C15, 5-((5R,8R,9S,10S,13R,14S,17R)-14-hydroxy-10,13-dimethyl-3-(piperazin-1-yl)hexadecahydro-1H-cyclopenta[a]phenanthren-17-yl)-2H-pyran-2-one]
- IC50 (A549, 72 h): < 20 nM

SMILES: COC(=O)N(C)C1CC[C@@]2(C)[C@H](CC[C@@H]3[C@@H]2CC[C@]2(C)[C@@H](c4ccc(=O)oc4)CC[C@]32O)C1 (stereo partly drawn) [Compound C21, methyl ((5R,8R,9S,10S,13R,14S,17R)-14-hydroxy-10,13-dimethyl-17-(2-oxo-2H-pyran-5-yl)hexadecahydro-1H-cyclopenta[a]phenanthren-3-yl)(methyl)carbamate]
- IC50 (A549, 72 h): < 20 nM

SMILES: C[C@]12CC[C@@H](NC(=O)N3CCCC3)C[C@H]1CC[C@@H]1[C@@H]2CC[C@]2(C)[C@@H](c3ccc(=O)oc3)CC[C@]12O [Compound C05, N-((3R,5R,8R,9S,10S,13R,14S,17R)-14-hydroxy-10,13-dimethyl-17-(2-oxo-2H-pyran-5-yl)hexadecahydro-1H-cyclopenta[a]phenanthren-3-yl)pyrrolidine-1-carboxamide]
- IC50 (A549, 72 h): 100 to 1000 nM

SMILES: C[C@]12CC[C@@H](NC(=O)NCCO)C[C@H]1CC[C@@H]1[C@@H]2CC[C@]2(C)[C@@H](c3ccc(=O)oc3)CC[C@]12O [Compound C07, 1-((3R,5R,8R,9S,10S,13R,14S,17R)-14-hydroxy-10,13-dimethyl-17-(2-oxo-2H-pyran-5-yl)hexadecahydro-1H-cyclopenta[a]phenanthren-3-yl)-3-(2-hydroxyethyl)urea]
- IC50 (A549, 72 h): 100 to 1000 nM

SMILES: C[C@]12CC[C@@H](NC(=O)CN)C[C@H]1CC[C@@H]1[C@@H]2CC[C@]2(C)[C@@H](c3ccc(=O)oc3)CC[C@]12O [Compound C11, 2-amino-N-((3R,5R,8R,9S,10S,13R,14S,17R)-14-hydroxy-10,13-dimethyl-17-(2-oxo-2H-pyran-5-yl)hexadecahydro-1H-cyclopenta[a]phenanthren-3-yl)acetamide]
- IC50 [1]: 20 to 100 nM

SMILES: C[C@]12CC[C@H](NS(C)(=O)=O)C[C@H]1CC[C@@H]1[C@@H]2CC[C@]2(C)[C@@H](c3ccc(=O)oc3)CC[C@]12O [Compound C16, N-((3S,5R,8R,9S,10S,13R,14S,17R)-14-hydroxy-10,13-dimethyl-17-(2-oxo-2H-pyran-5-yl)hexadecahydro-1H-cyclopenta[a]phenanthren-3-yl)methanesulfonamide]
- IC50 (A549, 72 h): < 20 nM

SMILES: C[C@]12CCC(NC(=O)[C@H]3CCCN3)C[C@@]1(O)CC[C@@H]1[C@@H]2CC[C@]2(C)[C@@H](c3ccc(=O)oc3)CC[C@]12O (stereo partly drawn) [Compound C31, (2R)-N-((5S,8R,9S,10R,13R,14S,17R)-5,14-dihydroxy-10,13-dimethyl-17-(2-oxo-2H-pyran-5-yl)hexadecahydro-1H-cyclopenta[a]phenanthren-3-yl)pyrrolidine-2-carboxamide]
- IC50 (A549, 72 h): < 20 nM
